The subject of data set [1] is MCF-7 human breast adenocarcinoma cell line. Put plainly: MTT cytotoxicity assay. To be noted: Homo sapiens, MCF7, 24 h incubation, 3.9–500 µg/mL. In kind it is cell-based. The procedure:
(§1) The tetrazolium salt, MTT (3-(4,5-dimethylthiazol-2-yl)-2,5-diphenyltetrazolium bromide), is used to measure the metabolic activity of viable cells. Tetrazolium salts are reduced to formazan by mitochondrial succinate dehydrogenase, an enzyme which is only active in cells with an intact metabolism. The formazan can be quantified photometrically and it is in correlation with the number of viable cells. Cytotoxicity was tested using the MCF-7 human breast adenocarcinoma cell line and NIH/3T3 mouse embryonic fibroblast cell line. NIH/3T3 and MCF-7 cells were incubated in RPMI medium (Hyclone, Thermo Scientific, Logan, UT, USA) supplemented with fetal calf serum (Hyclone), 100 IU/mL penicillin and […] (Hyclone) at 37 °C in a humidified atmosphere of 95% air and 5% CO2. MCF-7 and NIH/3T3 cells were seeded at 10,000 cells into each well of 96-well plates. After 24 h of incubating period, the culture mediums were removed and compounds were added to culture medium at 3.9–500 µg/mL concentrations. After 24 h of incubation, cytotoxicity tests were performed using the MTT assay, which measures mitochondrial activity, in MCF-7 and NIH/3T3 cells. Firstly, 20 µL MTT solution (5 mg/mL MTT powder in PBS) was added to each well. After 3 h incubation period at 37 °C, 5% CO2, the contents of the wells were removed and 100 µL DMSO was added to each well. Then, OD of the plate was read at 570 nm. Inhibition% was calculated for each concentration of the compounds. IC50 values were estimated by non-linear regression analysis. Cisplatin was used as a positive control. Stock solutions of compounds were prepared in DMSO and further dilutions were made with fresh culture medium. All experiments were performed in duplicate.

Data set [2] has as its system NIH/3T3 mouse embryonic fibroblast cell line. Put plainly: MTT cytotoxicity assay. The class given is cell-based. Particulars: Mus musculus, NIH3T3, 24 h incubation, 3.9–500 µg/mL. The procedure:
as §1

Data set [3] deals with Candida tropicalis (NRRLY 12968). Put plainly: Anticandidal broth microdilution assay. In kind it is cell-based. Particulars: RPMI, 37 °C, 24 h. As for the experimental part:
(§2) Anticandidal activity assay was performed against Candida albicans (ATCC 10231), Candida utilis (NRRLY 900), Candida tropicalis (NRRLY 12968), Candida krusei (NRRLY 7179), Candida parapsilosis (NRRLY 12696) and Candida glabrata (ATCC 2001) standard strains according to the CSLI method.
(§3) The minimum inhibitory concentration (MIC, µg/mL) values against pathogenic Candida strains were determined by a broth microdilution method using a 96-well plate format. Compounds 1–14 and fluconazole as a standard control were first dissolved in dimethyl sulfoxide (DMSO) (25%) at an initial concentration of 2000 µg/mL.
(§4) All Candida strains were inoculated on Potato Dextrose Agar (PDA) prior the experiments at 37 °C. After the incubation, sufficiently grown microorganisms were inoculated in sterile saline (0.85%), and then standardized according to the turbidity to 5 × 10^3 CFU (McFarland No: 0.5) per well in RPMI medium under sterile conditions. Serial dilutions were prepared in 100 µL RPMI medium with an equal amount of the test samples, and 100 µL each microorganism suspension was pipetted into each well and incubated at 37 °C for 24 h. Positive growth controls (to assess the presence of turbidity) were performed in wells without the test samples, whereas the negative growth control (medium) was also evaluated. MIC was deﬁned as the lowest concentration without any visible growth of the yeast when compared with the growth in the control plate. All experiments were performed in duplicate.

In data set [4] the test system is Candida albicans (ATCC 10231). As to the kind of experiment: Anticandidal broth microdilution assay. Particulars: ATCC10231, RPMI, 37 °C, 24 h. In kind it is cell-based. The procedure:
as §2, §3, §4

The subject of data set [5] is Candida parapsilosis (NRRLY 12696). As to the kind of experiment: Anticandidal broth microdilution assay. The class given is cell-based. Particulars: Lodderomyces parapsilosis, RPMI, 37 °C, 24 h. The procedure: as §2, §3, §4
In data set [6] the test system is Candida utilis (NRRLY 900). As to the kind of experiment: Anticandidal broth microdilution assay. To be noted: Williopsis jadinii, RPMI, 37 °C, 24 h. In kind it is cell-based. The procedure: as §2, §3, §4
Data set [7] deals with Candida glabrata (ATCC 2001). Put plainly: Anticandidal broth microdilution assay. In kind it is cell-based. Particulars: Nakaseomyces glabratus, ATCC2001, RPMI, 37 °C, 24 h. The procedure:
as §2, §3, §4

Data set [8] relates to Candida krusei (NRRLY 7179). As to the kind of experiment: Anticandidal broth microdilution assay. Particulars: Pichia kudriavzevii, RPMI, 37 °C, 24 h. The class given is cell-based. The procedure: as §2, §3, §4

Molecules are shown by their SMILES. In brackets after ≈: the same amount, converted by molar mass. A value given as a limit tells only on which side of the number the result lay.

Take `O=[N+]([O-])c1ccc(-c2ccc(C=NNc3nc(-c4ccccc4)cs3)o2)cc1` [Compound 1, 2-[2-((5-(4-Nitrophenyl)furan-2-yl)methylene)hydrazinyl]-4-phenylthiazole]: the melting point was 213 to 214 °C. In addition, the IC50 in [1] was above 500 µg/mL. The molecule also returned an IC50 in data set [2] above 500 µg/mL. This molecule also gave an MIC in data set [3] of 1000 µg/mL (≈ 2560 µM). 500 µg/mL (≈ 1280 µM) was the least that counted as inhibitory in data set [4] (MIC). This molecule also had an MIC in [5] of 500 µg/mL (≈ 1280 µM). The same molecule yielded an MIC in [6] of 500 µg/mL (≈ 1280 µM). Moreover, the MIC in data set [7] turned out to be 1000 µg/mL (≈ 2560 µM). In data set [8], this molecule came in with an MIC of 500 µg/mL (≈ 1280 µM).
`COc1ccc(-c2csc(NN=Cc3ccc(-c4ccc([N+](=O)[O-])cc4)o3)n2)cc1` [Compound 7, 4-(4-Methoxyphenyl)-2-[2-((5-(4-nitrophenyl)furan-2-yl)methylene)hydrazinyl]thiazole] came in with a melting point of 232 to 233 °C. Besides, the IC50 in [1] is above 500 µg/mL. Besides, the IC50 in data set [2] was above 500 µg/mL. Besides, the lowest concentration to inhibit growth in data set [3] (MIC) was 500 µg/mL (≈ 1190 µM). For the same molecule, in data set [4], the MIC is 500 µg/mL (≈ 1190 µM). Besides, in data set [5], the minimum inhibitory concentration (MIC) was determined as 500 µg/mL (≈ 1190 µM). The same molecule gave an MIC in data set [6] of 500 µg/mL (≈ 1190 µM). Besides, it took 1000 µg/mL (≈ 2380 µM) to inhibit growth in data set [7] (MIC). In addition, inhibition of growth in [8] (MIC) required 500 µg/mL (≈ 1190 µM).
With `O=[N+]([O-])c1ccc(-c2csc(NN=Cc3ccc(-c4ccc(Cl)cc4[N+](=O)[O-])o3)n2)cc1` [Compound 9, 2-[2-((5-(4-Chloro-2-nitrophenyl)furan-2-yl)methylene)hydrazinyl]-4-(4-nitrophenyl)thiazole], the melting point was 216 to 220 °C. This molecule returned a concentration for half-maximal inhibition (IC50) in data set [1] of 103 µg/mL (≈ 218 µM). The molecule also yielded an IC50 in data set [2] of 86.3 µg/mL (≈ 184 µM). This molecule registered an MIC in [3] of 500 µg/mL (≈ 1060 µM). The minimal inhibitory concentration (MIC) in data set [4] came out at 500 µg/mL (≈ 1060 µM). The molecule also registered an MIC in data set [5] of 500 µg/mL (≈ 1060 µM). The molecule further came in with an MIC in data set [6] of 500 µg/mL (≈ 1060 µM). In [7], inhibition of growth (MIC) required 1000 µg/mL (≈ 2130 µM). The MIC in data set [8] was found to be 500 µg/mL (≈ 1060 µM).
